Measured values published in US10688197B2, “Non-alcoholic fatty liver regulator 14-3-3 protein” (Korea University Research and Business Foundation, priority 2015, dated 2020).

Experiments:
Format in all cases: cell-based
[1] = system: primary mouse hepatocytes; assay: Oil Red-O lipid accumulation in primary mouse hepatocytes; conditions: for lipid accumulation by oleic acid: overexpression, 200 μM oleic acid 72 hours, FIG. 9B
Method: HepG2 cells and primary mouse hepatocytes were separately seeded in a 6-well plate at a density of 4×10^5 cells per each well, and then transfected with GFP-14-3-3β DNA (1 μg) or GFP-14-3-3γ DNA (1 μg) and si-14-3-3β (10 μM, Santa Cruz) or si-14-3-3γ (10 μM, Santa Cruz) using an E-fection plus reagent (Lugen). A ratio of DNA to the E-fection plus reagent was 1:2, and this method was performed according to a manufacturer's manual. […] The stained cells were bleached with 1 ml of isopropanol and analyzed at a wavelength of 550 nm using a DU530 spectrophotometer (Beckman Instruments, Palo Alto, Calif.).

[2] = system: primary mouse hepatocytes; assay: Triglyceride colorimetric assay in primary mouse hepatocytes; conditions: FIG. 10A
Method: HepG2 cells and primary mouse hepatocytes were separately seeded in a 6-well plate at a density of 4×10^5 cells per each well, and then transfected with GFP-14-3-3β DNA (1 μg) or GFP-14-3-3γ DNA (1 μg) and si-14-3-3β (10 μM, Santa Cruz) or si-14-3-3γ (10 μM, Santa Cruz) using an E-fection plus reagent (Lugen). A ratio of DNA to the E-fection plus reagent was 1:2, and this method was performed according to a manufacturer's manual. After transfection, the cells were treated with 200 μM of oleic acid (OA) for 72 hours, and the amount of triglycerides was measured using a triglyceride colorimetric assay kit (Cayman Chemical). The corresponding cells were washed with ice-cold PBS and then scraped using a standard diluent assay reagent, the scrapping process was repeated using a sonicator 20 times to lyse the cells, and the lysed cells were reacted with an enzyme buffer solution for 15 minutes, followed by measurement using an ELISA reader (Bio-Rad Laboratories, Inc) at a wavelength of 550 nm.

[3] = system: primary mouse hepatocytes; assay: mRNA expression by real-time PCR in primary mouse hepatocytes; conditions: for mRNA expression of SREBP-1c and FAT/CD36: overexpression, oleic acid, FIG. 7B
Method: HepG2 cells and primary mouse hepatocytes were separately seeded in a 6-well plate at a density of 4×10^5 cells per each well, and then treated with 200 μM of oleic acid (OA) for 72 hours. For mRNA extraction, the corresponding cells were lysed with 1 ml/well of TRIzol (Invitrogen), 200 μl of chloroform was added thereto and mixed well, the resultant cells were maintained at room temperature for 5 minutes and then centrifuged at 12,000×g and 4° C. for 15 minutes, the obtained supernatant was mixed with 500 μl of isopropanol and then put on ice for 10 minutes, the resulting supernatant was centrifuged at 12,000×g and 4° C. for 15 minutes to remove a supernatant, and then pellets were dissolved with tertiary distilled water treated with diethyl pyrocarbonate (DEPC). 2 μg of mRNA was synthesized into cDNA using a Superscript First Strand cDNA Synthesis Kit (Bioneer, Daejeon, South Korea) and the synthesized cDNA as a template was amplified through polymerase chain reaction (PCR) using primers specific to PPARγ2, 14-3-3β, 14-3-3γ, SREBP-1c, SCD-1, ACC, FABP, FAT/CD36, and β-actin of humans, and was amplified through real-time PCR using primers specific to PPARγ2, 14-3-3β, 14-3-3γ, SREBP-1c, FAT/CD36, and GAPDH of mice. β-actin and GAPDH were used as controls to see whether mRNAs of the respective cells were compared in the same amount.
HepG2 cells were seeded in a 6-well plate at a density of 4×10^5 cells per each well, and then transfected with GFP-14-3-3β DNA (4 μg) or GFP-14-3-3γ DNA (4 μg) using an E-fection plus reagent (Lugen). A ratio of DNA to the E-fection plus reagent was 1:2, and this method was performed according to a manufacturer's manual. After transfection, the cells were treated with 200 μM of oleic acid (OA) for 72 hours, and for mRNA extraction, the corresponding cells were lysed with 1 ml/well of TRIzol (Invitrogen), 200 μl of chloroform was added thereto and mixed well, the resultant cells were maintained at room temperature for 5 minutes and then centrifuged at 12,000×g and 4° C. for 15 minutes, the obtained supernatant was mixed with 500 μl of isopropanol and then put on ice for 10 minutes, and the resulting supernatant was centrifuged at 12,000×g and 4° C. for 15 minutes to remove a supernatant, and then pellets were dissolved with tertiary distilled water treated with diethyl pyrocarbonate (DEPC). 2 μg of mRNA was synthesized into cDNA using a Superscript First Strand cDNA Synthesis Kit (Bioneer, Daejeon, South Korea) and the synthesized cDNA as a template was amplified through polymerase chain reaction (PCR) using primers specific to PPARγ2 (SEQ ID NOS: 1 and 2), 14-3-3β (SEQ ID NOS: 3 and 4), 14-3-3γ (SEQ ID NOS: 5 and 6), SREBP-1c, FAT/CD36, and β-actin of humans, and was amplified through real-time PCR using primers specific to SREBP-1c, FAT/CD36, and GAPDH of mice. β-actin and GAPDH were used as controls to see whether mRNAs of the respective cells were compared in the same amount.

[4] = primary mouse hepatocytes, overexpression, 200 μM oleic acid 72 hours

In the case of `CCCCCCCC/C=C\CCCCCCCC(=O)O` [oleic acid], the lipid accumulation ([1]; concentration-dependent treatment of oleic acid, FIG. 9A) is reported as “increased”, the triglyceride accumulation ([2]; primary mouse hepatocytes treated with oleic acid) is reported as “increased” and the “mRNA expression of PPARγ2” value ([3]; oleic acid concentration-dependent, FIG. 6B) is reported as “increased”. For the same compound, the “mRNA expression of lipid metabolism-associated genes (PPARγ2 target genes)” value ([3]; oleic acid concentration-dependent, FIG. 6D) was “increased” and the “mRNA expression amounts of 14-3-3β and 14-3-3γ” value ([3]; oleic acid treatment, FIG. 6B) was “no changes”.
With “14-3-3γ: 14-3-3 isoform protein overexpressed by DNA transfection; decreases the transcriptional activity of PPARγ2; proposed active ingredient” the “lipid accumulation by oleic acid” value [1] was “reduced”, the triglyceride accumulation [2, 4] was “reduced” and the “mRNA expression of SREBP-1c and FAT/CD36” value [3] was “reduced”.
In the case of “14-3-3β: 14-3-3 isoform protein overexpressed by DNA transfection; increases the transcriptional activity of PPARγ2 by binding to PPARγ2”, the “lipid accumulation by oleic acid” value [1] is reported as “increased”, the triglyceride accumulation [2, 4] is reported as “further increased” and the “mRNA expression of SREBP-1c and FAT/CD36” value [3] is reported as “further increased”.
